According to ChEMBL document CHEMBL3856212, “Synthesis, anti-proliferative and genotoxicity studies of 6-chloro-5-(2-substituted-ethyl)-1,3-dihydro-2H-indol-2-ones and 6-chloro-5-(2-chloroethyl)-3-(alkyl/ary-2-ylidene)indolin-2-ones” (Eur J Med Chem, 2016):

Key:
[1] = Cytotoxicity against human CCRF-CEM cells assessed as growth inhibition after 48 hrs by SRB assay; type: functional
[2] = Cytotoxicity against human RPMI8226 cells assessed as growth inhibition after 48 hrs by SRB assay; type: functional; settings: RPMI-8226, 48 h
[3] = Cytotoxicity against human A549 cells assessed as growth inhibition after 48 hrs by SRB assay; type: functional; settings: A549, 48 h
[4] = Cytotoxicity against human NCI-H226 cells assessed as growth inhibition after 48 hrs by SRB assay; type: functional; settings: NCI-H226, 48 h
[5] = Cytotoxicity against human NCI-H460 cells assessed as growth inhibition after 48 hrs by SRB assay; type: functional; settings: NCI-H460, 48 h
[6] = Cytotoxicity against human HCT116 cells assessed as growth inhibition after 48 hrs by SRB assay; type: functional; settings: HCT-116, 48 h
[7] = Cytotoxicity against human HT-29 cells assessed as growth inhibition after 48 hrs by SRB assay; type: functional; settings: HT-29, 48 h
[8] = Cytotoxicity against human SW620 cells assessed as growth inhibition after 48 hrs by SRB assay; type: functional; settings: SW-620, 48 h
[9] = Cytotoxicity against human SF539 cells assessed as growth inhibition after 48 hrs by SRB assay; type: functional; settings: SF-539, 48 h
[10] = Cytotoxicity against human M14 cells assessed as growth inhibition after 48 hrs by SRB assay; type: functional; settings: M14, 48 h
[11] = Cytotoxicity against human SK-MEL-28 cells assessed as growth inhibition after 48 hrs by SRB assay; type: functional; settings: SK-MEL-28, 48 h
[12] = Cytotoxicity against human UACC62 cells assessed as growth inhibition after 48 hrs by SRB assay; type: functional; settings: UACC-62, 48 h
[13] = Cytotoxicity against human OVCAR4 cells assessed as growth inhibition after 48 hrs by SRB assay; type: functional; settings: OVCAR-4, 48 h
[14] = Cytotoxicity against human 786-0 cells assessed as growth inhibition after 48 hrs by SRB assay; type: functional; settings: 786-0, 48 h
[15] = Cytotoxicity against human MCF7 cells assessed as growth inhibition after 48 hrs by SRB assay; type: functional; settings: MCF7, 48 h
[16] = Cytotoxicity against human MDA-MB-468 cells assessed as growth inhibition after 48 hrs by SRB assay; type: functional; settings: MDA-MB-468, 48 h
[17] = Cytotoxicity against human A549 cells assessed as assessed as growth inhibition at 10^-5 M after 48 hrs by SRB assay relative to control; type: functional; settings: A549, 48 h, read-out: GI
[18] = Cytotoxicity against human EKVX cells assessed as assessed as growth inhibition at 10^-5 M after 48 hrs by SRB assay relative to control; type: functional; settings: read-out: GI
[19] = Cytotoxicity against human HOP62 cells assessed as assessed as growth inhibition at 10^-5 M after 48 hrs by SRB assay relative to control; type: functional; settings: HOP-62, 48 h, read-out: GI
[20] = Cytotoxicity against human HT-29 cells assessed as assessed as growth inhibition at 10^-5 M after 48 hrs by SRB assay relative to control; type: functional; settings: HT-29, 48 h, read-out: GI
[21] = Cytotoxicity against human U251 cells assessed as assessed as growth inhibition at 10^-5 M after 48 hrs by SRB assay relative to control; type: functional; settings: U-251, 48 h, read-out: GI
[22] = Cytotoxicity against human SK-MEL-28 cells assessed as assessed as growth inhibition at 10^-5 M after 48 hrs by SRB assay relative to control; type: functional; settings: SK-MEL-28, 48 h, read-out: GI
[23] = Cytotoxicity against human UACC62 cells assessed as assessed as growth inhibition at 10^-5 M after 48 hrs by SRB assay relative to control; type: functional; settings: UACC-62, 48 h, read-out: GI
[24] = Cytotoxicity against human OVCAR4 cells assessed as assessed as growth inhibition at 10^-5 M after 48 hrs by SRB assay relative to control; type: functional; settings: OVCAR-4, 48 h, read-out: GI
[25] = Cytotoxicity against human OVCAR5 cells assessed as assessed as growth inhibition at 10^-5 M after 48 hrs by SRB assay relative to control; type: functional; settings: OVCAR-5, 48 h, read-out: GI
[26] = Cytotoxicity against human NCI-ADR-RES cells assessed as assessed as growth inhibition at 10^-5 M after 48 hrs by SRB assay relative to control; type: functional; settings: read-out: GI
[27] = Cytotoxicity against human ACHN cells assessed as assessed as growth inhibition at 10^-5 M after 48 hrs by SRB assay relative to control; type: functional; settings: read-out: GI
[28] = Cytotoxicity against human MCF7 cells assessed as assessed as growth inhibition at 10^-5 M after 48 hrs by SRB assay relative to control; type: functional; settings: MCF7, 48 h, read-out: GI
[29] = Cytotoxicity against human T47D cells assessed as assessed as growth inhibition at 10^-5 M after 48 hrs by SRB assay relative to control; type: functional; settings: read-out: GI
[30] = Cytotoxicity against human MDA-MB-468 cells assessed as assessed as growth inhibition at 10^-5 M after 48 hrs by SRB assay relative to control; type: functional; settings: MDA-MB-468, 48 h, read-out: GI
Mus musculus [31] = organism: Mus musculus; assay: Genotoxicity in mouse EAC cells at 250 uM after 24 hrs by micronucleus assay (reference value: 3.5 +/- 0.30%); type: toxicity, cell-based; settings: ehrlich
Mus musculus [32] = organism: Mus musculus; assay: Genotoxicity in mouse EAC cells at 375 uM after 24 hrs by micronucleus assay (reference value: 3.5 +/- 0.30%); type: toxicity, cell-based; settings: ehrlich
Mus musculus [33] = organism: Mus musculus; assay: Genotoxicity in mouse EAC cells at 500 uM after 24 hrs by micronucleus assay (reference value: 3.5 +/- 0.30%); type: toxicity, cell-based; settings: ehrlich
[34] = Cytotoxicity against human NCI-H322M cells assessed as assessed as growth inhibition at 10^-5 M after 48 hrs by SRB assay relative to control; type: functional; settings: read-out: GI
[35] = read-out: LD50 (the source's name)

SMILES: O=C1Cc2cc(CCn3ccnc3)c(Cl)cc2N1
- GI50 [1]: 3.37 µM
- TGI [1]: > 1 µM
- CC50 [1, 35]: > 1 µM
- GI50 [2]: 4.61 µM
- TGI [2]: > 1 µM
- CC50 [2, 35]: > 1 µM
- GI50 [3]: 7.63 µM
- TGI [3]: > 1 µM
- CC50 [3, 35]: > 1 µM
- GI50 [4]: 1 µM
- TGI [4]: > 1 µM
- CC50 [4, 35]: > 1 µM
- GI50 [5]: 1.61 µM
- TGI [5]: > 1 µM
- CC50 [5, 35]: > 1 µM
- GI50 [6]: 1.31 µM
- TGI [6]: > 1 µM
- CC50 [6, 35]: > 1 µM
- GI50 [7]: 1 µM
- TGI [7]: > 1 µM
- CC50 [7, 35]: > 1 µM
- GI50 [8]: 5.02 µM
- TGI [8]: > 1 µM
- CC50 [8, 35]: > 1 µM
- GI50 [9]: 6 µM
- TGI [9]: > 1 µM
- CC50 [9, 35]: > 1 µM
- GI50 [10]: 3.46 µM
- TGI [10]: 3.98 µM
- CC50 [10, 35]: > 1 µM
- GI50 [11]: 2.97 µM
- TGI [11]: > 1 µM
- CC50 [11, 35]: > 1 µM
- GI50 [12]: 7.68 µM
- TGI [12]: > 1 µM
- CC50 [12, 35]: > 1 µM
- GI50 [13]: 4.5 µM
- TGI [13]: > 1 µM
- CC50 [13, 35]: > 1 µM
- GI50 [14]: 1 µM
- TGI [14]: > 1 µM
- CC50 [14, 35]: > 1 µM
- GI50 [15]: 4.12 µM
- TGI [15]: > 1 µM
- CC50 [15, 35]: > 1 µM
- GI50 [16]: 2.74 µM
- TGI [16]: > 1 µM
- CC50 [16, 35]: > 1 µM
- inhibition of growth at 10 µM [17]: 33.3%
- inhibition of growth at 10 µM [18]: 72.7%
- inhibition of growth at 10 µM [19]: 33.1%
- inhibition of growth at 10 µM [20]: 1.22%
- inhibition of growth at 10 µM [21]: 32.7%
- inhibition of growth at 10 µM [22]: 32.2%
- inhibition of growth at 10 µM [23]: 29.8%
- inhibition of growth at 10 µM [24]: 2.81%
- inhibition of growth at 10 µM [25]: 18.9%
- inhibition of growth at 10 µM [26]: 54.3%
- inhibition of growth at 10 µM [27]: 21.7%
- inhibition of growth at 10 µM [28]: 77.1%
- inhibition of growth at 10 µM [29]: 5.51%
- inhibition of growth at 10 µM [30]: 69.2%
- Activity (Mus musculus [31]): 2.83%
- Activity (Mus musculus [32]): 3.43%
- Activity (Mus musculus [33]): 4.83%
- inhibition of growth at 10 µM [34]: 9.68%
